# Columns and labels:
# Hepacivirus hominis = experiment: Binding affinity to HCV NS3/4a protease assessed as compound-protein adduct formation per mg protein using radiolabelled compound
# Hepatitis C virus = experiment: Antiviral activity against HCV genotype 3a in RLuc cells assessed as reduction in viral replication by luciferase reporter gene assay; assay type: functional, organism-based, Hepacivirus hominis, subtype 3a; conditions: Hepatitis C virus, subtype 3a
# [1] = Half life in rat; assay type: ADME; conditions: in vivo
# [2] = Volume of distribution at steady state in rat; assay type: ADME; conditions: in vivo, read-out: Vdss
# [3] = Lipophilicity, log D of compound; assay type: physicochemical; conditions: octanol/water
# [4] = Clearance in rat; assay type: ADME; conditions: in vivo
# [5] = Oral bioavailability in rat; assay type: ADME, organism-based; conditions: in vivo
# [6] = Drug concentration in rat liver after 6 hrs; assay type: ADME, tissue-based; conditions: read-out: Drug uptake
# [7] = Inhibition of HCV genotype 3a NS3/4a protease by enzymatic assay; design: species or system Hepatitis C virus subtype 3a
structure (smiles),measurement,setting,value
CC[C@@H]1C[C@]1(NC(=O)[C@@H]1C[C@@H]2CN1C(=O)[C@H](C(C)(C)C)NC(=O)OCC(C)(C)CCCCc1cccc3c1CN(C3)C(=O)O2)C(=O)NS(=O)(=O)C1CC1,PB,Hepacivirus hominis,29 pmol/mg
C=C[C@@H]1C[C@]1(NC(=O)[C@@H]1C[C@@H](Oc2cc(-c3csc(NC(=O)C(C)C)n3)nc3c(Br)c(OC)ccc23)CN1C(=O)[C@@H](NC(=O)OC1CCCC1)C(C)(C)C)C(=O)O,PB,Hepacivirus hominis,15 pmol/mg
CC[C@@H]1[C@@H]2CN(C(=O)[C@H](C(C)(C)C)NC(=O)O[C@@H]3C[C@H]3CCCCCc3nc4ccc(OC)cc4nc3O2)[C@@H]1C(=O)N[C@]1(C(=O)NS(=O)(=O)C2CC2)C[C@H]1C(F)F,EC50,Hepatitis C virus,27 nM
same,half-life,[1],48 min
same,Vd,[2],1 L/kg
same,logD,[3],3.5
same,clearance,[4],33.3 mL/min/kg
same,bioavailability,[5],36%
same,concentration at 6 h,[6],1200 nM
same,Ki,[7],0.043 nM
CC[C@@H]1C[C@]1(NC(=O)[C@@H]1C[C@@H](Oc2cc(-c3csc(NC(C)C)n3)nc3c(Cl)c(OCCN4CCOCC4)ccc23)CN1C(=O)[C@@H](NC(=O)O[C@@H]1C[C@@H]2C[C@@H]2C1)C(C)(C)C)C(=O)O,PB,Hepacivirus hominis,26 pmol/mg
C=C[C@@H]1C[C@]1(NC(=O)[C@@H]1C[C@@H]2CN1C(=O)[C@H](C(C)(C)C)NC(=O)O[C@@H]1C[C@H]1CCCCCc1nc3ccc(OC)cc3nc1O2)C(=O)NS(=O)(=O)C1CC1,PB,Hepacivirus hominis,24 pmol/mg
COc1ccc2c(O[C@H]3CCN4C(=O)N(C)CCCC/C=C\[C@@H]5C[C@@]5(C(=O)NS(=O)(=O)C5(C)CC5)NC(=O)[C@@H]4C3)cc(-c3nc(C(F)(F)F)cs3)nc2c1C,PB,Hepacivirus hominis,96 pmol/mg
Cc1cnc(C(=O)N[C@H]2CCCCC/C=C\[C@@H]3C[C@@]3(C(=O)NS(=O)(=O)C3CC3)NC(=O)[C@@H]3C[C@@H](Oc4nc5ccccc5c5ccccc45)CN3C2=O)cn1,PB,Hepacivirus hominis,295 pmol/mg

# Source: ChEMBL document CHEMBL4346726 (Bioorg Med Chem Lett, 2019)
